Our source for the IC50 values is patent US8633183B2 (priority 2010, dated 2014).

In this test the target is PI3Kalpha (Homo sapiens (Human), UniProt P42336). The settings on record: read-out: IC50 PI3K.
Chain of PI3Kalpha (P42336 whole entry, looked up): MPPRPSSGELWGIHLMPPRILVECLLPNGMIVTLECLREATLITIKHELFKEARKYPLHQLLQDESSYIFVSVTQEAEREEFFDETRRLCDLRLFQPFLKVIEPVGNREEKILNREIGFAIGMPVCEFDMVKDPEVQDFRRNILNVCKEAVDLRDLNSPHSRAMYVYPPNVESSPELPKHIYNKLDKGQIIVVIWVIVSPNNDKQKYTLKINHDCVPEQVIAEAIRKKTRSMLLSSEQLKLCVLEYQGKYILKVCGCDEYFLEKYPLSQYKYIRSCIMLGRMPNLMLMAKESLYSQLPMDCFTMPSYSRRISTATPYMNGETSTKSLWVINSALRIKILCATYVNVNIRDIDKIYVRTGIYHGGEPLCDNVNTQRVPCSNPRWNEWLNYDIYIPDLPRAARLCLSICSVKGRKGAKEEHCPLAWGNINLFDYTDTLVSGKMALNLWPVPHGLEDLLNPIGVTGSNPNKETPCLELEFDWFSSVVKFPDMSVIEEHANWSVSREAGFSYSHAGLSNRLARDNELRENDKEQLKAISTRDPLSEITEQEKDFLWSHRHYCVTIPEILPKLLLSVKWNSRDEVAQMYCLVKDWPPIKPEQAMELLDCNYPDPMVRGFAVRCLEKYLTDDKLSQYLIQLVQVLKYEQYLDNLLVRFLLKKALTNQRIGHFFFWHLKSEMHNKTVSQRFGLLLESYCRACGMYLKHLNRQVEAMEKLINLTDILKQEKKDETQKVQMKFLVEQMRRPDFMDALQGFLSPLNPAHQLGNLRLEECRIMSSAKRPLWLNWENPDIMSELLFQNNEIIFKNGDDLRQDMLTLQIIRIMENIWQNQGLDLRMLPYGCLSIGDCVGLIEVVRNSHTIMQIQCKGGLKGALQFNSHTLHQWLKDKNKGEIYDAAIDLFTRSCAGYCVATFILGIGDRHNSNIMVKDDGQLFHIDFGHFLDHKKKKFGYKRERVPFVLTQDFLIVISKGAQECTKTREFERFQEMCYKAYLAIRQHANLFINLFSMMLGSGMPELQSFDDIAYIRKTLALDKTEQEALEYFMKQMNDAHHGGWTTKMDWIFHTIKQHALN
Turning to `CCc1ncnc(-c2ccc(C(=O)N3CCN(C4CCOCC4)CC3)c(C)c2)c1C#Cc1ccc(N)nc1` [Example E-88], the IC50 came out at 84.4 nM.

`CCc1ncnc(-c2ccc(C(=O)NC3CCS(=O)(=O)C3)c(F)c2)c1C#Cc1ccc(N)nc1` [Example D-212]: the IC50 stood at 79 nM.

Take `CCc1ncnc(-c2ccc(C(=O)N3CCN(C4COC4)CC3)c(Cl)c2)c1C#Cc1ccc(N)nc1` [Example E-273]: the IC50 worked out at 119 nM.

Regarding `CCc1ncnc(-c2cc(F)c(C(=O)N3CCC(N4CCOCC4)CC3)c(Cl)c2)c1C#Cc1ccc(N)nc1` [Example E-236], the IC50 was 141 nM.

As to `CCc1ncnc(-c2cc(Cl)c(C(=O)N3CCN(CCC#N)CC3)c(Cl)c2)c1C#Cc1ccc(N)nc1` [Example E-206], the 50% inhibitory concentration (IC50) was 71.8 nM.

As for `Cc1ncnc(-c2ccc(C(F)(F)F)nc2)c1C#Cc1ccc(N)nc1` [Example C-21], the IC50 was 99 nM.

With `CCc1ncnc(-c2ccc(C(=O)N(C)O)c(C)c2)c1C#Cc1ccc(N)nc1` [Example E-128], the IC50 came out at 37.2 nM.

On to `CCc1ncnc(-c2ccc(C(=O)N3C[C@H]4CN(C(=O)OC(C)(C)C)C[C@H]4C3)c(F)c2)c1C#Cc1ccc(N)nc1` [Example E-329], for which the IC50 is 238 nM.

Turning to `CNC(=O)c1ccc(-c2ncnc(C)c2C#Cc2ccc(N)nc2)cc1Cl` [Example C-5], the IC50 is 50 nM.

On to `CCc1ncnc(-c2ccc(C(=O)N3CCC(CN(C)C)CC3)c(Cl)c2)c1C#Cc1ccc(N)nc1` [Example E-274], for which the IC50 worked out at 445 nM.

With `CCc1ncnc(-c2ccc(C(=O)N3CCN(CC4CC4)CC3)c(Cl)c2)c1C#Cc1ccc(N)nc1` [Example E-18], the IC50 was determined as 228 nM.

As for `CCc1ncnc(-c2cc(Cl)c(C(=O)N3CC[C@@H](N(C)C)C3)c(Cl)c2)c1C#Cc1ccc(N)nc1` [Example E-196], the IC50 turned out to be 235 nM.

Turning to `CCc1ncnc(-c2ccc(C(=O)N3CCC4(CC3)CC(N)C4)c(F)c2)c1C#Cc1ccc(N)nc1` [Example E-320], the IC50 amounted to 1300 nM.

In the case of `CCc1ncnc(-c2ccc(C(=O)N3CCN(C(C)=O)CC3)c(F)c2)c1C#Cc1ccc(N)nc1C` [Example D-82], the IC50 stood at 146 nM.

Take `CCc1ncnc(-c2cc(F)c(C(=O)N3CCC4(CC3)COC4)c(F)c2)c1C#Cc1ccc(N)nc1` [Example E-150]: the IC50 was determined as 120 nM.

Turning to `CCc1ncnc(-c2cc(F)c(C(=O)N3CCN(Cc4nc(C)c(C)o4)CC3)c(Cl)c2)c1C#Cc1ccc(N)nc1` [Example E-307], the IC50 came out at 193 nM.

Regarding `CCc1ncnc(-c2ccc(C(=O)N3CCN(c4ccccn4)CC3)c(C)c2)c1C#Cc1ccc(N)nc1` [Example E-130], the IC50 was determined as 69.1 nM.

As to `CCc1ncnc(-c2ccc(C(=O)N3CCC(N(C)C)CC3)c(F)c2)c1C#Cc1ccc(N)nc1` [Example D-100], the IC50 amounted to 347 nM.

For the compound `CCNc1ccc(C#Cc2c(CC)ncnc2-c2ccc(C(=O)N3CCn4ccnc4C3)c(F)c2)cn1` [Example E-260], the IC50 was 63.8 nM.

Consider `CCc1ncnc(-c2cc(F)c(C(=O)N3CCN(Cc4nc(C)c(C)o4)CC3)c(F)c2)c1C#Cc1ccc(N)nc1` [Example E-300], for which the IC50 was found to be 783 nM.

As to `CCc1ncnc(-c2cc(F)c(C(=O)N3CCC4(CC3)CC(=O)CO4)c(Cl)c2)c1C#Cc1ccc(N)nc1` [Example E-311], the IC50 worked out at 69.1 nM.

Consider `CCc1ncnc(-c2ccc(C(=O)N3CCCC(N(C)C)C3)c(OC)c2)c1C#Cc1ccc(N)nc1` (centres unmarked) [Example E-51], for which the IC50 stood at 205 nM.

As for `CCc1ncnc(-c2ccc(C(=O)N3CCn4c(C)cnc4C3)c(F)c2)c1C#Cc1ccc(N)nc1` [Example E-247], the IC50 came out at 95.4 nM.

As for `Cc1ncnc(-c2ccc(F)c(C(=O)N3CCCCC3)c2)c1C#Cc1ccc(N)nc1` [Example C-41], the IC50 was found to be 539 nM.

For `CCc1ncnc(-c2cc(F)c(C(=O)N3CCC4(CC3)COC4)c(Cl)c2)c1C#Cc1ccc(N)nc1` [Example E-158], the IC50 was 122 nM.

In the case of `CCc1ncnc(-c2ccc(C(=O)N3CCC4(CC3)CNCCO4)c(F)c2)c1C#Cc1ccc(N)nc1` [Example E-322], the IC50 was determined as 391 nM.

What is called IC50 is the midpoint of a concentration-inhibition curve.
